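Tested at 5 concentrations; 48 h exposure; 96-well plates; endpoints linearly interpolated, else capped at highest concentration. GI50 marks 50% less growth. TGI: total growth inhibition.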
Columns and labels:
Assay in all cases: growth of human tumour cells (NCI), 48 h
[1] = system: A549 NSCLC
[2] = system: EKVX NSCLC
[3] = system: HCC-2998 colon
[4] = system: HT29 colon
[5] = system: MALME-3M melanoma
[6] = system: OVCAR-8 ovarian
[7] = system: RPMI-8226 leukemia
[8] = system: RXF 393 renal
[9] = system: SK-OV-3 ovarian
[10] = system: SNB-19 CNS

| SMILES | GI50 [1] | TGI [1] | GI50 [2] | TGI [2] | GI50 [3] | TGI [3] | GI50 [4] | TGI [4] | GI50 [5] | TGI [5] | GI50 [6] | TGI [6] | GI50 [7] | TGI [7] | GI50 [8] | TGI [8] | GI50 [9] | TGI [9] | GI50 [10] | TGI [10] |
| --- | --- | --- | --- | --- | --- | --- | --- | --- | --- | --- | --- | --- | --- | --- | --- | --- | --- | --- | --- | --- |
| COc1ccc(C(=O)c2nc3ccccc3n2CC(=O)c2ccc(Cl)cc2)cc1 | 17.5 µM | > 100 µM | 11.6 µM | > 100 µM | 3.94 µM | > 100 µM | 2820 nM | > 100 µM | 1920 nM | > 100 µM | 6.3 µM | > 100 µM | 1710 nM | > 23.9 µM | 2600 nM | > 24.6 µM | 10.4 µM | > 100 µM | 4.32 µM | > 100 µM |
| CC(C)Oc1ccc(C(=O)Cn2ccnc2)cc1-n1c(CN2CCN(C(=O)COc3ccc(Cl)cc3)CC2)nc2ccccc2c1=O | 18.4 µM | > 72.1 µM | 16.5 µM | 97 µM | 15.7 µM | 31 µM | 14800 nM | 44.9 µM | 12500 nM | 30.3 µM | 15.5 µM | 53.2 µM | 11500 nM | 40.4 µM | 7480 nM | 22.2 µM | 20 µM | 76.2 µM | 29.6 µM | > 100 µM |
| COc1cc2nc(-c3ccc(C(F)(F)F)cc3)cc(OCCCN3CCCC3)c2cc1OC | 0.685 µM | > 42.7 µM | 0.848 µM | 24.5 µM | 2.07 µM | 10 µM | 429 nM | 5.85 µM | 1660 nM | 5.59 µM | 0.826 µM | > 49.7 µM | 78.6 nM | 1.6 µM | 448 nM | 3.85 µM | 6.65 µM | > 53.4 µM | 5.23 µM | 21.5 µM |
| N#Cc1c(-c2ccco2)cc(-c2ccccc2)[nH]c1=O |  | > 100 µM |  | > 100 µM |  | > 100 µM |  | > 100 µM |  | > 100 µM |  | > 100 µM |  | > 100 µM |  | > 100 µM |  | > 100 µM |  | > 100 µM |
| Cc1nc(-c2cccnc2)sc1C(=O)/C=C/c1cccc([N+](=O)[O-])c1 |  | > 100 µM |  | > 100 µM |  | > 100 µM |  | > 100 µM |  | > 100 µM |  | > 100 µM |  | > 100 µM |  | > 100 µM |  | > 100 µM |  |  |
| CCN(CC)c1ccc(/C=C/C2=[N+](C)c3ccccc3C2(C)C)c(C)c1 | 0.0964 µM | 14.1 µM | 0.0466 µM | 7.86 µM | 0.102 µM | 5.27 µM | 46.3 nM | 1.32 µM | 155 nM | 1.09 µM | 0.0629 µM | 3.12 µM | < 16.4 nM | 0.466 µM | 83.7 nM | 2.85 µM | 0.0546 µM | 0.21 µM | 0.0684 µM | 9.36 µM |
| COC(=O)c1ccc2c(c1)C(=O)c1c-2n(CCCN=[N+]=[N-])c(=O)c2cc([N+](=O)[O-])ccc12 |  |  | 83.5 µM | > 100 µM | > 100 µM | > 100 µM | > 100000 nM | > 100 µM | 63000 nM | > 100 µM | > 100 µM | > 100 µM | 63300 nM | > 100 µM | 37300 nM | > 100 µM | 35.3 µM | > 100 µM | 47.4 µM | > 100 µM |

— PubChem BioAssay (NCI)
